Reference: patent US6890942B2, “Acyl sulfonamides as inhibitors of HIV integrase” (Bristol-Myers Squibb Company, priority 2003, dated 2005)

Columns and labels:
HIV-integrase = target: T1, HIV-integrase (Human immunodeficiency virus type 1 group M subtype B, UniProt P04585); assay: HIV-Integrase Inhibition Activity (SPA bead strand-transfer assay); type: biochemical; settings: 10 μM compound; recombinant integrase
T1 construct: 0.26 ng of recombinant integrase was incubated with the beads
Description: For each reaction, 5 pmole of biotin labeled substrate DNA was bound to 100 ug of Streptavidin coated PVT SPA beads (Amersham Pharmacia Biotech). 0.26 ng of recombinant integrase was incubated with the beads for 90 min at 37 C. Unbound enzyme was removed by washing the complex followed by addition of inhibitors and 0.1 fmol of P33 labeled target DNA. Reaction was stopped by adding EDTA to a final concentration of 10 mM. Samples were counted in TopCountNXT (Packard) and the CPM was used as a measure of integration. Reaction condition was as described in A. Engelman and R. Craigie, J. Virol. 69, 5908-5911 (1995). The sequences of substrate and target DNA were described in Nucleic Acid Research 22, 1121-1122 (1994). Compounds of this invention tested in this assay have IC50's of approximately 0.01 to 25 μM.

Row | SMILES | inhibition at 10 µM (HIV-integrase) | melting point
1 | CON(Cc1ccc(F)cc1)C(=O)/C=C(\O)C(=O)NS(=O)(=O)c1ccc(C)cc1 [Example 1, 3-Hydroxy-4-oxo-4-(toluene-4-sulfonylamino)-but-2-enoic acid (4-fluoro-benzyl)-methoxy-amide] | 99% | –
2 | CON(Cc1ccc(F)cc1)C(=O)/C=C(\O)C(=O)NS(C)(=O)=O [Example 2, 3-Hydroxy-4-methanesulfonylamino-4-oxo-but-2-enoic acid (4-fluoro-benzyl)-methoxy-amide] | 99% | 137 °C (dec.)
3 | CON(Cc1ccc(F)cc1)C(=O)/C=C(\O)C(=O)NS(=O)(=O)c1nnc(NC(C)=O)s1 [Example 3, 4-(5-Acetylamino-[1,3,4]thiadiazole-2-sulfonylamino)-3-hydroxy-4-oxo-but-2-enoic acid (4-fluoro-benzyl)-methoxy-amide] | 99% | –
4 | CON(Cc1ccc(F)cc1)C(=O)/C=C(\O)C(=O)NS(=O)(=O)CC1CCC1 [Example 4, 4-Cyclobutylmethanesulfonylamino-3-hydroxy4-oxo-but-2-enoic acid (4-fluoro-benzyl)-methoxy-amide] | 99% | –
5 | CON(Cc1ccc(F)cc1)C(=O)/C=C(\O)C(=O)NS(=O)(=O)C1CCCCC1 [Example 5, 4-Cyclohexanesulfonylamino-3-hydroxy-4-oxo-but-2-enoic acid (4-fluoro-benzyl)-methoxy-amide] | 99% | –
6 | CON(Cc1ccc(F)cc1)C(=O)/C=C(\O)C(=O)NS(=O)(=O)C1CCCC1 [Example 6, 4-Cyclopentanesulfonylamino-3-hydroxy-4-oxo-but-2-enoic acid (4-fluoro-benzyl)-methoxy-amide] | 99% | –
7 | CON(Cc1ccc(F)cc1)C(=O)/C=C(\O)C(=O)NS(=O)(=O)C1CC1 [Example 7, 4-Cyclopropanesulfonylamino-3-hydroxy-4-oxo-but-2-enoic acid (4-fluoro-benzyl)-methoxy-amide] | 99% | –
8 | CON(Cc1ccc(F)cc1)C(=O)/C=C(\O)C(=O)NS(=O)(=O)c1c(C)noc1C [Example 8, 4-(3,5-Dimethyl-isoxazole-4-sulfonylamino)-3-hydroxy-4-oxo-but-2-enoic acid (4-fluoro-benzyl)-methoxy-amide] | 99% | –
9 | CON(Cc1ccc(F)cc1)C(=O)/C=C(\O)C(=O)NS(=O)(=O)c1cccc(C)n1 [Example 9, 3-Hydroxy-4-(6-methyl-pyridine-2-sulfonylamino)-4-oxo-but-2-enoic acid (4-fluoro-benzyl)-methoxy-amide] | 94% | –
10 | CON(Cc1ccc(F)cc1)C(=O)/C=C(\O)C(=O)NS(=O)(=O)c1ccc(Cl)s1 [Example 10, 4-(5-Chloro-thiophene-2-sulfonylamino)-3-hydroxy-4-oxo-but-2-enoic acid (4-fluoro-benzyl)-methoxy-amide] | 95% | –
11 | CON(Cc1ccc(F)cc1)C(=O)/C=C(\O)C(=O)NS(=O)(=O)c1ccc(NC(C)=O)cc1 [Example 11, 4-(4-Acetylamino-benzenesulfonylamino)-3-hydroxy-4-oxo-but-2-enoic acid (4-fluoro-benzyl)-methoxy-amide] | 99% | –
12 | CCOc1ccc2nc(S(=O)(=O)NC(=O)C(O)=CC(=O)N(Cc3ccc(F)cc3)OC)sc2c1 [Example 12, 4-(6-Ethoxy-benzothiazole-2-sulfonylamino)-3-hydroxy-4-oxo-but-2-enoic acid (4-fluoro-benzyl)-methoxy-amide] | 99% | –
13 | CON(Cc1ccc(F)cc1)C(=O)/C=C(\O)C(=O)NS(=O)(=O)c1sc(C)nc1C [Example 13, 4-(2,4-Dimethyl-thiazole-5-sulfonylamino)-3-hydroxy-4-oxo-but-2-enoic acid (4-fluoro-benzyl)-methoxy-amide] | 98% | –
14 | CON(Cc1ccc(F)cc1)C(=O)/C=C(\O)C(=O)NS(=O)(=O)c1cn(C)cn1 [Example 14, 3-Hydroxy-4-(1-methyl-1H-imidazole-4-sulfonylamino)-4-oxo-but-2-enoic acid (4-fluoro-benzyl)-methoxy-amide] | 93% | –
15 | CCN1CCCC1CNC(=O)c1cc(S(=O)(=O)NC(=O)/C(O)=C/C(=O)N(Cc2ccc(F)cc2)OC)ccc1OC (stereo not shown) [Example 15, N-(1-Ethyl-pyrrolidin-2-ylmethyl)-5-[3-[(4-fluoro-benzyl)-methoxy-carbamoyl]-2-hydroxy-acryloylsulfamoyl]-2-methoxy-benzamide] | 93% | –
16 | CON(Cc1ccc(F)cc1)C(=O)/C=C(\O)C(=O)NS(=O)(=O)C1CCS(=O)(=O)C1 (stereo not shown) [Example 16, 4-(1,1-Dioxo-tetrahydro-1×6-thiophene-3-sulfonylamino)-3-hydroxy-4-oxo-but-2-enoic acid (4-fluoro-benzyl)-methoxy-amide] | 98% | –
17 | CON(Cc1ccc(F)cc1)C(=O)/C=C(\O)C(=O)NS(=O)(=O)c1ccc(-c2cc(C(F)(F)F)n(C)n2)s1 [Example 17, 3-Hydroxy-4-[5-(1-methyl-5-trifluoromethyl-1H-pyrazol-3-yl)-thiophene-2-sulfonylamino]-4-oxo-but-2-enoic acid (4-fluoro-benzyl)-methoxy-amide] | 99% | –
18 | CCCC1(S(=O)(=O)NC(=O)/C(O)=C/C(=O)N(Cc2ccc(F)cc2)OC)CC1 [Example 18, 3-Hydroxy-4-oxo-4-(1-propyl-cyclopropanesulfonylamino)-but-2-enoic acid (4-fluoro-benzyl)-methoxy-amide] | 99% | –
19 | CON(Cc1ccc(F)cc1)C(=O)/C=C(\O)C(=O)NS(=O)(=O)C1(CC2CC2)CC1 [Example 19, 4-(1-Cyclopropylmethyl-cyclopropanesulfonylamino)-3-hydroxy-4-oxo-but-2-enoic acid (4-fluoro-benzyl)-methoxy-amide] | 99% | –
20 | CON(Cc1ccc(F)cc1)C(=O)/C=C(\O)C(=O)NS(=O)(=O)C1(Cc2ccccc2)CC1 [Example 20, 4-(1-Benzyl-cyclopropanesulfonylamino)-3-hydroxy-4-oxo-but-2-enoic acid (4-fluoro-benzyl)-methoxy-amide] | 99% | –
21 | CON(Cc1ccc(C(=O)O)cc1)C(=O)/C=C(\O)C(=O)NS(C)(=O)=O [Example 21, 4-{[(3-Hydroxy-4-methanesulfonylamino-4-oxo-but-2-enoyl)-methoxy-amino]-methyl}-benzoic acid] | 30% | 119 to 124 °C
22 | CON(Cc1ccc(F)c(C)c1)C(=O)/C=C(\O)C(=O)NS(C)(=O)=O [Example 22, 3-Hydroxy-4-methanesulfonylamino-4-oxo-but-2-enoic acid (4-fluoro-3-methyl-benzyl)-methoxy-amide] | 99% | 138 °C (dec.)
23 | CON(Cc1ccccc1OC(C)C)C(=O)/C=C(\O)C(=O)NS(C)(=O)=O [Example 23, 3-Hydroxy-4-methanesulfonylamino-4-oxo-but-2-enoic acid (2-isopropoxy-benzyl)-methoxy-amide] | 99% | –
24 | CON(Cc1ccc(C(=O)OC(C)(C)C)cc1)C(=O)/C=C(\O)C(=O)NS(C)(=O)=O [Example 24, 4-{[(3-Hydroxy-4-methanesulfonylamino-4-oxo-but-2-enoyl)-methoxy-amino]-methyl}-benzoic acid tert-butyl ester] | 15% | –
25 | CON(Cc1ccc(C)c(F)c1)C(=O)/C=C(\O)C(=O)NS(C)(=O)=O [Example 25, 3-Hydroxy-4-methanesulfonylamino-4-oxo-but-2-enoic acid (3-fluoro-4-methyl-benzyl)-methoxy-amide] | 99% | –
26 | CON(C(=O)/C=C(\O)C(=O)NS(C)(=O)=O)C(C)c1ccc(F)cc1 (stereo not shown) [Example 26, 3-Hydroxy-4-methanesulfonylamino-4-oxo-but-2-enoic acid[1-(4-fluoro-phenyl)-ethyl]-methoxy-amide] | 99% | –
27 | CON(C(=O)/C=C(\O)C(=O)NS(C)(=O)=O)C(c1ccc(F)cc1)c1ccc(F)cc1 [Example 27, 3-Hydroxy-4-methanesulfonylamino-4-oxo-but-2-enoic acid [bis-(4-fluoro-phenyl)-methyl]-methoxy-amide] | 60% | –
28 | CON(Cc1ccc(F)cc1Cl)C(=O)/C=C(\O)C(=O)NS(C)(=O)=O [Example 28, 3-Hydroxy-4-methanesulfonylamino-4-oxo-but-2-enoic acid (2-chloro-4-fluoro-benzyl)-methoxy-amide] | 99% | 144 °C (dec.)
29 | CN(C(=O)/C=C(\O)C(=O)NS(C)(=O)=O)C(Cc1ccc(Cl)cc1)Cc1ccc(Cl)cc1 [Example 29, 3-Hydroxy-4-methanesulfonylamino-4-oxo-but-2-enoic acid [1-(4-chloro-benzyl)-2-(4-chloro-phenyl)-ethyl]-methyl-amide] | 86% | –
30 | CON(CCCc1ccc(F)cc1)C(=O)/C=C(\O)C(=O)NS(C)(=O)=O [Example 30, 3-Hydroxy-4-methanesulfonylamino-4-oxo-but-2-enoic acid [3-(4-fluoro-phenyl)-propyl]-methoxy-amide] | 98% | –
